Experimental data taken from patent publication US20210346506A1, “PRODRUG OF ITRACONAZOLE AND USES THEREOF” (priority 2020, published 2021).
Values belong to the compound of their own block, whether it stands above or below them.

Assays:
[1] = relatively low dose; cited from earlier work
[2] = Pharmacokinetic study of itraconazole release in mice after intravenous and oral dosing of Compound 6; type: in vivo, mouse; settings: for Plasma itraconazole Concentration (ng/mL): mice, individual mice
Method: Compound 6 was dissolved in DMSO:PEG400:water (1:4:5, v/v/v) with a final concentration of 0.2 mg/ml or 0.5 mg/ml. The 0.2 mg/ml solution was used for intravenous dosing, and the 0.5 mg/ml solution was for oral dosing.
Three male C57BL/6 mice were intravenously administered with Compound 6 at a dose of 1.0 mg/kg, and blood samples were collected at 2 min, 15 min, 30 min, 1 h, 2 h, 4 h, 6 h, 8 h, and 24 h post administration.
Three male C57BL/6 mice were orally given Compound 6 at a dose of 5.0 mg/kg, and blood samples were collected at 15 min, 30 min, 1 h, 2 h, 4 h, 6 h, 8 h, and 24 h post administration.
And dose levels were corrected in PK parameter calculation due to the salt factor.
The blood samples were subject to LC-MS/MS analysis, to monitor the plasma concentrations of both the parent compound and Itraconazole.
Column: Waters XSELECT HSS T3 2.5 μm 2.1×50 mm
Mobile phase: 5% Acetonitrile in Water (0.1% Formic acid) (A) and 95% Acetonitrile in Water (0.1% Formic acid) (B)
Gradient: flow rate at 0.6 mL/min
AB Sciex Triple Quad 5500 LC/MS/MS instrument (Serial NO. BB212611510)
Quantification: Internal Standard Method

[3] = Compound stability test in mouse blood; type: in vitro ADME; settings: 37° C., 1 μM; for Remaining Percentages (%): mouse blood
Method: (§1) One (1) mM test compound working solution was prepared in DMSO. One (1) mM propantheline working solution was prepared in acetonitrile, wherein propantheline was used as positive control in this assay.
(§2) Ten (10) μL of each test compound solution and the control compound solution were respectively added into a 96 deep well plate, and 40 μL of acetonitrile:water (V/V=1:1) was added to each well to dilute the 1 mM test compound solution to 200 μM working solution.
(§3) Mouse blood (male CD-1 mouse blood, Pharmaron, Lot# PH-ADME-Mouse-20180329) or human blood (Pharmaron, Lot# PH-ADME-Human-20180329) of 398 μL was added to each well of an incubation plate, and then the incubation plate was pre-warmed at 37° C. for 15 minutes. After the pre-incubation, 2 μL of 200 μM working solution prepared above was spiked to the pre-warmed 398 μL blood to reach a final concentration of 1 μM. The final concentration of DMSO was 0.1% and the final concentration of acetonitrile was 0.2%. The assay was performed in duplicate.
(§4) The incubation plate was incubated at 37° C. water bath with shaking at 50 rpm, and aliquots of 50 μL were taken from each well of the incubation plate at 0, 10, 30, 60, 90, 120 and 180 minutes.
(§5) The reaction was stopped by the addition of 50 μL of pure water. The plate was vortexed for 30 seconds at 1,000 rpm and then added with 300 μL of cold acetonitrile containing internal standards (100 nM aprozolam, 200 nM caffeine, 100 nM tolbutamide).
(§6) All samples were vortexed for 10 minutes, followed by centrifugation at 14,000 rpm for 15 minutes to precipitate proteins. 100 μL of each supernatant was transferred to a new plate, and diluted with ultrapure water according to the LC-MS signal response and peak shape.
(§7) Samples were analyzed by LC-MS/MS.
(§8) • LC system: ACQUITY UPLC® I-Class • MS analysis: Waters XEVO® TQ-D with an ESI interface • Column temperature: 40° C. • Injection volume: 3 μL • Column: Waters XSelect HSS T3 C18, 2.5 μm, 2.1×50 mm column • Mobile phase: 0.1% formic acid in water (A) and 0.1% formic acid in acetonitrile (B)
(§9) • Ion source: Turbo spray • Ionization model: ESI • Scan type: MRM • Cone gas: 150 L/h • Desolvation gas: 1000 L/h • Desolvation temperature: 500° C. • Capillary voltage: 3.00 KV
(§10) All calculations were carried out using Microsoft Excel. Peak area ratios were determined from extracted ion chromatograms, and percent compounds remaining at each time point were calculated by the following equation:
(§11) Remaining Percentaget min(%)=Peak Area Ratiot min/Peak Area Ratio0 min×100, where Peak Area Ratiot min referred to peak area ratio of control and test compounds at t min; and Peak Area Ratio0 min referred to peak area ratio of control and test compounds at zero time point. The in vitro half-life (in vitro t1/2) was determined from the slope value: In vitro T1/2=−(0.693/k).

[4] = Compound stability test in human blood; type: in vitro ADME; settings: 37° C., 1 μM; for Remaining Percentages (%): human blood
Method: as §1, §2, §3, §4, §5, §6, §7, §8, §9, §10, §11

Compound: CCC(C)n1ncn(-c2ccc(N3CCN(c4ccc(OCC5COC(Cn6cncn6)(c6ccc(Cl)cc6Cl)O5)cc4)CC3)cc2)c1=O (stereo not drawn) [Itraconazole]
adverse effect, in words [1]: no observed adverse effect

Plasma itraconazole Concentration (ng/mL) ([2]; IV Dose 0.822 mg/kg Compound 6, 8 h, 0.822 mg/kg): BLOQ | Plasma itraconazole Concentration (ng/mL) ([2]; IV Dose 0.822 mg/kg Compound 6, 24 h): BLOQ | Plasma itraconazole Concentration (ng/mL) ([2]; PO Dose 4.11 mg/kg Compound 6, 24 h): BLOQ | half-life at 1 μM ([3]; male, CD-1, in vitro half-life in mouse blood): 10 min | Remaining Percentages (%) ([3]; 0 min): 100% | Remaining Percentages (%) ([3]; 10 min): 51.5% | Remaining Percentages (%) ([3]; 30 min): 12.6% | Remaining Percentages (%) ([3]; 60 min): 3.10% | Remaining Percentages (%) ([3]; 90 min): 0.595% | Remaining Percentages (%) ([3]; 120 min): 0.186% | Remaining Percentages (%) ([3]; 180 min): 0.232% | Remaining Percentages (%) ([4]; 0 min): 100% | Remaining Percentages (%) ([4]; 10 min): 94.2% | Remaining Percentages (%) ([4]; 30 min): 77.3% | Remaining Percentages (%) ([4]; 60 min): 55.3% | Remaining Percentages (%) ([4]; 90 min): 41.1% | Remaining Percentages (%) ([4]; 120 min): 34.0% | Remaining Percentages (%) ([4]; 180 min): 15.2% | half-life at 1 μM ([4]; in vitro half-life in human blood): 67.4 min
Compound: CCOC(=O)OC[n+]1cnn(CC2(c3ccc(Cl)cc3Cl)OCC(COc3ccc(N4CCN(c5ccc(-n6cnn(C(C)CC)c6=O)cc5)CC4)cc3)O2)c1.[Cl-] (stereo not drawn) [Compound 6]
abnormal clinical symptoms during the test ([2]; male C57BL/6 mice, 1.0 mg/kg intravenous or 5.0 mg/kg oral Compound 6): No mice were observed with abnormal clinical symptoms
